ChEMBL document CHEMBL1143516, “Mercaptoamide-based non-hydroxamic acid type histone deacetylase inhibitors” (Bioorg Med Chem Lett, 2005)

These molecules were tested against Histone deacetylase (assay: In vitro inhibitory concentration against Histone deacetylase; Control value 0.06 uM).
Type: protein assay, Homo sapiens

Compound	IC50 [nM]
O=C(CS)NCCCCCC(=O)Nc1cnc2ccccc2c1	1100
O=C(CCCCCCCC(=O)Nc1ccccc1)NCCS	10200
O=C(CS)NCCC(=O)Nc1cnc2ccccc2c1	39500
O=C(NCCS)C(=O)Nc1ccccc1	2800
O=C(CS)NCCCC(=O)Nc1cnc2ccccc2c1	660
O=C(CS)NCCCCC(=O)Nc1cnc2ccccc2c1	2800
O=C(CCCCCCC(=O)Nc1ccccc1)NCCS	2350
O=C(CCCCCC[N-]CC[S-])Nc1ccccc1.[Zn+2]	> 100000

The remaining lines, values ahead:

IC50 [nM]	Compound
12500	O=C(CCC(=O)Nc1ccccc1)NCCS
3100	O=C(CCCC(=O)Nc1ccccc1)NCCS
2500	O=C(CCCCCC(=O)Nc1ccccc1)NCCS
1500	O=C(CCCCC(=O)Nc1ccccc1)NCCS
70000	O=C(CC(=O)Nc1ccccc1)NCCS
